Reference: patent US20080241077A1, “BENZOYLGUANIDINE SALT AND HYDRATES THEREOF” (priority 2001, published 2008)
Structures can show the parent of a compound that is named as a salt.

How the values were obtained:
Format in all cases: physicochemical
[1] = Solubility in physiologically acceptable solvents
[2] = Stability of the active substance
[3] = Hygroscopicity of the active substance

- solubility [1]: dissolves readily
- stability [2]: high degree of stability
- hygroscopicity [3]: not hygroscopic
Compound: NC(N)=NC(=O)c1ccc(N2CCN(C(=O)c3ccc[nH]3)CC2)c(C(F)(F)F)c1 [formula 1, 4-[4-(2-pyrrolylcarbonyl)-1-piperazinyl]-3-trifluoromethylbenzoylguanidine hydrochloride]
